Patent US9623009B2, “Veliparib in combination with carboplatin and paclitaxel for the treatment of non-small cell lung cancer in smokers” (AbbVie Inc., priority 2014, dated 2017)

Legend:
clinical = assay: clinical
Description: (§1) A Phase 2, randomized, double-blind, multi-center study was conducted evaluating the efficacy, safety, and tolerability of veliparib in combination with carboplatin and paclitaxel versus placebo in combination with carboplatin and paclitaxel in subjects with documented metastatic or advanced non-small cell lung cancer (NSCLC) as first-line chemotherapy. Patients were randomized in a 2:1 ratio to either veliparib+carboplatin/paclitaxel or placebo+carboplatin/paclitaxel. Patient randomization was stratified by histology (squamous cell versus non-squamous cell), and smoking history (current smoker versus never smoked versus past smoker). Screening procedures and baseline radiographic tumor assessments were performed within 21 days prior to the first day veliparib/placebo was administered. Radiographic tumor assessments were conducted every 6 weeks and were sent to a central imaging center for review. Dosing of oral veliparib/placebo (120 mg) began 2 days prior to the start of the carboplatin/paclitaxel and was given twice a day (BID) for 7 days. […] All subjects were to remain on study until reaching a protocol defined event of disease progression. Patients who completed 6 cycles of treatment remained on study/off study drugs until reaching an event of disease progression. Chemotherapy or biological therapy (maintenance therapy) was not allowed until disease progression. Patients who experienced toxicities due to carboplatin/paclitaxel or veliparib may have been given a delay in the dosing schedule or a dose modification.
Pharmacokinetic parameters were evaluated for patients with chemical evidence of recent smoking (cotinine high^b, >10 ng/mL) compared with those without evidence of recent smoking (cotinine low, ≦10 ng/mL).

[1] = tested on: metastatic or advanced non-small cell lung cancer (NSCLC); assay: Phase 2 randomized double-blind study: PFS and OS with veliparib + carboplatin/paclitaxel versus placebo + carboplatin/paclitaxel; format: in vivo, human
Description: as §1

[2] = patients without chemical evidence of smoking

Tmax, Mean ± SD (% CV) (clinical; human, in vivo, po)	Tmax (clinical; human, in vivo, po, Tmax, Mean ± SD (% CV)) [h]	SMILES	HR for OS ([1]; light smokers (<39 pack-years))	HR for PFS ([1]; light smokers (<39 pack-years))	HR for OS [1, 2]	HR for PFS [1, 2]	differences in levels between cotinine high and cotinine low patients (clinical; cotinine high >10 ng/mL vs cotinine low ≦10 ng/mL)
1.05 ± 0.82 (78.3) hr	1.34	C[C@]1(c2nc3c(C(N)=O)cccc3[nH]2)CCCN1 [Veliparib, 2-[(2R)-2-methylpyrrolidin-2-yl]-1H-benzimidazole-4-carboxamide]	0.808	0.971	0.921	0.966	–
–	–	N.N.O=C([O-])C1(C(=O)[O-])CCC1.[Pt+2] [carboplatin]	–	–	–	–	no clear differences
